Test [1] has as its system Carrageenan-induced paw edema. Nature of the test: Carrageenan-Induced Paw Edema in Rats. The format is in vivo, rat. The settings on record: oral, *p < 0.05. The protocol: The antiinflammatory activities of two compounds in accordance with the invention (those of Examples 1 and 10) were determined in vivo and compared to those of the known antiinflammatory agents indomethacin and meloxicam, using the Carrageenan-Induced Paw Edema in Rats protocol described by C. A Winter et al. J. Pharmacol. Exp. Ther. 1963, 141, 369. Test compounds were administered orally.

Test [2] concerns the target Human cyclooxygenase 1 (COX-1) (Homo sapiens, UniProt P23219). Nature of the test: COX-1 inhibition, microsomal assay. The settings on record: 20 min, read-out: % Inhibition of COX Enzymes in Microsomal Assays, COX-1. The protocol: (§1) Human cyclooxygenase 1 and 2 are expressed in a baculovirus expression system using High 5 insect cells. Microsomal fractions prepared from the cells are stored at -80° C. The assays are performed at room temperature in phosphate buffered saline. After incubating the COX-1 or COX-2 microsomes with hematin (2 μM), phenol (0.5 mM) and reduced glutathione (1 mM) for 5 minutes, inhibitor or DMSO vehicle is added and allowed to incubate for 20 minutes. Arachidonic acid (2 μM) is added and after 20 minutes the reaction is stopped by the addition of HCl (0.1 N HCl final concentration).
(§2) The inhibitory activities against COX-1 and COX-2 of the compounds described in the above Synthetic Examples were determined using the two in vitro assays described above.

A further test has as its target T1, human recombinant COX-1 (Homo sapiens, UniProt P23219).
T1 construct: expressed in transfected cells; host or cells: Cos-A2 cells, stably transfected
Nature of the test: COX-1 inhibition, COS cell assay. The format is cell-based. The settings on record: for inhibition at 0.1 µM / inhibition at 1 µM / inhibition at 10 µM: COS, read-out: Inhibition of COX Enzymes in COS Cell Assays, COX-1 % inhibition. How it is done: (§3) Cos-A2 cells stably transfected with human recombinant COX-1 or COX-2 are cultured in 96 well tissue culture plates with Dulbecco's Modified Eagle Medium supplemented with 10% fetal bovine serum, glutamine (2 mM), penicillin (50 U/mL), streptomycin ([…]) and geneticin (400 μg/mL). Media is removed from confluent monolayers and the cells are washed twice with Hank's buffered saline solution. Fresh HBSS is added, with or without inhibitor, and the cells are incubated for 30 minutes at 37° C. Arachidonic acid (30 μM) is then added and the cells are incubated for an additional one hour at 37° C. Individual experiments represent a mean of triplicate wells for control and inhibitor doses. Supernatents are removed and stored at -80° C. until assayed for PGE2 by EIA (Amersham).
as §2

A further test addresses T2, human recombinant COX-2 (Homo sapiens, UniProt P35354).
T2 construct: expressed in transfected cells; host or cells: Cos-A2 cells, stably transfected
T2 sequence (P35354 18-604): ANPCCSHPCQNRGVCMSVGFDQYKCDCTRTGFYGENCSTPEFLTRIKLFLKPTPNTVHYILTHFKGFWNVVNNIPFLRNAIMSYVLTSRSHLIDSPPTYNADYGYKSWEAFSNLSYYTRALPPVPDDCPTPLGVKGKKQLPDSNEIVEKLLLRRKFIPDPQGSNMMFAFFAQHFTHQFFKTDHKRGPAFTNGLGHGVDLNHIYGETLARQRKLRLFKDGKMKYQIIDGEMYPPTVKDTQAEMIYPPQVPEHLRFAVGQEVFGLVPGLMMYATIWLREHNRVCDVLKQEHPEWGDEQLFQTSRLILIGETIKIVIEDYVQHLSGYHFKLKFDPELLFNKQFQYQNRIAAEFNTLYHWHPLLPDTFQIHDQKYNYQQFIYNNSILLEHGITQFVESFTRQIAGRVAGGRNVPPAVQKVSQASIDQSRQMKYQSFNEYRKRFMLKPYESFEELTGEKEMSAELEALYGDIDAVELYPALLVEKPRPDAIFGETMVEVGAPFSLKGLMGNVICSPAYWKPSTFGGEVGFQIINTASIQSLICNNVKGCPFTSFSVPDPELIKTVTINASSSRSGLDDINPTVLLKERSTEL
The test is described as follows: COX-2 inhibition, COS cell assay. In kind it is cell-based. The note with it: for IC50: COS cells, COX-2, read-out: Inhibition of COX Enzymes in COS Cell Assays, COX-2 IC50. The protocol:
as §3, §2

The target of test [3] is T3, Human cyclooxygenase 2 (COX-2) (Homo sapiens, UniProt P35354).
T3 sequence (P35354 18-604): T2 sequence (P35354 18-604)
The test is described as follows: COX-2 inhibition, microsomal assay. The note with it: 20 min, read-out: % Inhibition of COX Enzymes in Microsomal Assays, COX-2. How it is done:
as §1, §2

In another test the test system is COX-2. The settings on record: in words, background; cited from earlier work.
Where [4] appears, read: COS, read-out: Inhibition of COX Enzymes in COS Cell Assays, COX-2 % inhibition.

Read-outs that look alike come from different tables or passages of the source.

The text below walks through data of patent US5741798A, “2-benzyl-4-sulfonyl-4H-isoquinolin-1,3-diones and their use as antiinflammatory agents” (priority 1997, dated 1998).

T1 sequence (P23219 24-599): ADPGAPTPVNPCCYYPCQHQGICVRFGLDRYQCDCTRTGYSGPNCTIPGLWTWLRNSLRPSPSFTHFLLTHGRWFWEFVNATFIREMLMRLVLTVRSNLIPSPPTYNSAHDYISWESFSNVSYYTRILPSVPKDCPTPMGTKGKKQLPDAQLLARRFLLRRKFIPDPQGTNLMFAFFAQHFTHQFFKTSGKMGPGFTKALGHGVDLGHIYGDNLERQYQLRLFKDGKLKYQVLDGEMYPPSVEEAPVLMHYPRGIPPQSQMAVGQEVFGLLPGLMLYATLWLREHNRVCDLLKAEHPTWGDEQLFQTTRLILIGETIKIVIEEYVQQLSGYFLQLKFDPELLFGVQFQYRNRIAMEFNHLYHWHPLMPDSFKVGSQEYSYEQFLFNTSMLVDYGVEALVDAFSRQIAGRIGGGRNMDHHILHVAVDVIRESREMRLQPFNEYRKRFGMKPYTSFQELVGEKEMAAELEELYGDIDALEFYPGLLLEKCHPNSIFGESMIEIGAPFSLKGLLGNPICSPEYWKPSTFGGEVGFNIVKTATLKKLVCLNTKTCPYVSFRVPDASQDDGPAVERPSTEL
Human cyclooxygenase 1 (COX-1), sequence (P23219 24-599): as above

As for `CC(C)S(=O)(=O)C1C(=O)N(Cc2ccccc2)C(=O)c2ccc(Cl)cc21` (stereo not drawn) [Example 1, 2-Benzyl-6-chloro-4-(1-methylethyl)sulfonyl-4H-isoquinolin-1,3-dione], the “Effect of Compounds in Carrageenen Paw Edema in Rats, % Inhibition” value (“Effect of Compounds … % Inhibition” for short) in test [1] (30 mg/kg) is on record as 42.5%. Further, in test [2], the inhibition – broadly, the drop in the measured response relative to a control, in per cent – at 0.1 µg/mL was determined as 10%; the inhibition at 1 µg/mL is 34%; the inhibition at 10 µg/mL worked out at 57%. For the same compound, the IC50 – broadly, the concentration that gives 50% inhibition – on human recombinant COX-1 (COS cells, COX-1, read-out: Inhibition of COX Enzymes in COS Cell Assays, COX-1 IC50) came out at 1400 nM.
For `CC(C)S(=O)(=O)C1C(=O)N(Cc2ccc(F)c(F)c2)C(=O)c2ccc(Cl)cc21` (stereo not drawn) [Example 10], the IC50 on human recombinant COX-2 was found to be 100 nM. Further, the “Effect of Compounds … % Inhibition” value in test [1] (30 mg/kg) worked out at 38.6%. For the same compound, in test [2], the inhibition at 0.1 µg/mL came out at 13%, the inhibition at 1 µg/mL was found to be 40% and the inhibition at 10 µg/mL was found to be 96%. Also, in test [3], the inhibition at 0.1 µg/mL was -3%, the inhibition at 1 µg/mL worked out at 100% and the inhibition at 10 µg/mL is 100%. For the same compound, on human recombinant COX-1, the inhibition at 0.1 µM worked out at 20%, the inhibition at 1 µM turned out to be 55% and the inhibition at 10 µM worked out at 88%.
With `O=C1c2ccccc2C(S(=O)(=O)CC(F)(F)F)C(=O)N1Cc1ccccc1` (stereo not drawn) [Example 11], the IC50 on human recombinant COX-2 came out at 64000 nM. The inhibition at 1 µM at human recombinant COX-2 (setting [4]) and at human recombinant COX-1 (1 μM) was 0% in each case. For the same compound, the inhibition at 10 µM on human recombinant COX-2 (setting [4]) stood at 30%; on human recombinant COX-1 (10 μM) it was 64%. In addition, the inhibition at 0.1 µg/mL is 4% in test [2] and 23% in test [3]. Moreover, the inhibition at 1 µg/mL is 21% in test [2] and 32% in test [3]. Further, the inhibition at 10 µg/mL in test [2] was found to be 50%; in test [3], 52%.
As for `O=C1c2ccccc2C(S(=O)(=O)c2cccs2)C(=O)N1Cc1ccccc1` (stereo not drawn) [Example 21], the inhibition at 0.1 µM was determined as 65% on human recombinant COX-2 (COS, read-out: Inhibition of COX Enzymes in COS Cell Assays, COX-2 % inhibition, 0.1 μM) and 35% at human recombinant COX-1 (0.1 μM). The inhibition at 1 µM turned out to be 80% at human recombinant COX-2 (setting [4]) and 67% at human recombinant COX-1 (1 μM). Besides, the results for the inhibition at 10 µM on human recombinant COX-2 (setting [4]) and at human recombinant COX-1 (10 μM) were 89% and 94%, respectively. Moreover, the inhibition at 0.1 µg/mL was 17% in test [2] and 12% in test [3]. For the same compound, the inhibition at 1 µg/mL in test [2] amounted to 14%; in test [3], 46%. The inhibition at 10 µg/mL in test [2] worked out at 67%; in test [3] it was 48%.
For the compound `COc1ccc2c(c1)c(CC(=O)O)c(C)n2C(=O)c1ccc(Cl)cc1` [Indomethacin, reference compound], the “Effect of Compounds … % Inhibition” value in test [1] (10 mg/kg) was 58%.
On to `Cc1cnc(NC(=O)C2=C(O)c3ccccc3S(=O)(=O)N2C)s1` [Meloxicam, reference compound], for which the “Effect of Compounds … % Inhibition” value in test [1] (30 mg/kg) amounted to 56%. Moreover, in the test on COX-2, the “selective inhibition of the COX-2 isoform” value is recorded as “more or less selectively inhibit the COX-2 isoform”.
